Numbered stars: 1 amine (or outer) side, 2 acyl side, 3 side chain; on linkers, the order of the positions; unused ones are H or OH. Bridge positions count the residues as written; N and C are the ends. Square brackets hold non-standard residues; d marks the D form. Peptide text beside a SMILES is read from it. * marks the point of attachment. C20 diacid = O=C(O)CCCCCCCCCCCCCCCCCCC(=O)*; γGlu = O=C(O)[C@H](CCC(=O)[*:2])N[*:1]; Hyp = O=C(O)[C@@H]1C[C@@H](O)CN1; NMeI = CC[C@H](C)[C@H](NC)C(=O)O; Aad = N[C@@H](CCCC(=O)O)C(=O)O; Sar = CNCC(=O)O
How the values were obtained:
[1] = target: T1, recombinant human calcitonin receptor (hCT-R) (Homo sapiens, UniProt P30988); assay: hCT-R cAMP assay (AlphaScreen) in 1321N1 cells; assay type: cell-based; settings: cAMP formation, 45 min stimulation
T1 construct: host or cells: human astrocytoma cell line 1321N1
T1 sequence (P30988 25-474): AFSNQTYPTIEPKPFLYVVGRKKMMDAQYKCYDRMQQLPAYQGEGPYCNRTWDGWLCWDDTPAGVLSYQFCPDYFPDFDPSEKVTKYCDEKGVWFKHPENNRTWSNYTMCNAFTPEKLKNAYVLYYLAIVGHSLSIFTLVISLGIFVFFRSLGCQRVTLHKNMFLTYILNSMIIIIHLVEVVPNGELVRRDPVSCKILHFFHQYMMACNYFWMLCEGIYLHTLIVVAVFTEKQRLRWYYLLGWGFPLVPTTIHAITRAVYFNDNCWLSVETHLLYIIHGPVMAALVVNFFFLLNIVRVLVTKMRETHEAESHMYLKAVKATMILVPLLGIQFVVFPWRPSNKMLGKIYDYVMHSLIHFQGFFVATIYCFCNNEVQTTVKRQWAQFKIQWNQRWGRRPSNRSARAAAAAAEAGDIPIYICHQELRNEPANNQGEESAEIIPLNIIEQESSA
How it was run: (§1)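 1321N1 astrocytoma cells expressing recombinant human calcitonin receptor alone or with RAMP3 (AMY3) stimulated 45 min at room temperature with peptide in IBMX-containing buffer. cAMP quantified by AlphaScreen after 1 h bead incubation; EC50 fitted from at least 7 concentrations.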

[2] = Assessment of chemical stability in 40 mM buffers at 40° C. (RP-HPLC); assay type: physicochemical; settings: 1 mg/mL; for % degradation after 14 days at 40° C. pH6 phosphate: phosphate buffer pH 6, 14 days
How it was run: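 Peptides at 1 mg/mL in 40 mM acetate pH 4 or phosphate pH 6 and 7 were held at 40° C for 3 and 14 days. Main-peak area-% by C8 RP-HPLC, UV 220 nm; % degradation = change in main-peak area-% versus t=0.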

[3] = target: T2, recombinant human amylin 3 receptor (hAMYR3) (Homo sapiens, UniProt O60896+P30988); assay: hAMYR3 cAMP assay (AlphaScreen) in 1321N1 cells; assay type: cell-based; settings: cAMP formation, 45 min stimulation
T2 construct: host or cells: human astrocytoma cell line 1321N1
T2 sequence (P30988 25-474): T1 sequence (P30988 25-474)
T2 sequence (O60896 24-148 partner): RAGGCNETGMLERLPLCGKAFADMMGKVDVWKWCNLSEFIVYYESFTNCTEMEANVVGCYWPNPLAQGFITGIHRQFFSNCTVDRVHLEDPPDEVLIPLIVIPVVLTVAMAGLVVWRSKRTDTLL
How it was run: as §1

[4] = Assessment of physical stability: fibril formation by Thioflavin T fluorescence; assay type: physicochemical; parameters: key: FND = fibrillation not detected; FD = fibrillation detected; settings: 1 mg/mL peptide; for Fibrillation (in buffer) pH4 acetate: 50 mM acetate buffer pH 4.0, 96 hours at 40° C.; for Fibrillation (in buffer) pH7 histidine: 50 mM histidine buffer pH 7.0, 96 hours at 40° C.; for Fibrillation (in buffer) pH7 phosphate: 50 mM phosphate buffer pH 7.0, 96 hours at 40° C.
How it was run: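 Test peptide at 1 mg/mL with 40 μM ThT in 50 mM phosphate pH 7.0, 50 mM histidine pH 7.0, or 50 mM acetate pH 4.0, in triplicate. Fluorescence read every 10 min after 300 s agitation for 96 hours at 40° C; significant intensity rise scored as fibrillation detected (FD).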

[5] = Effect on acute food intake and body weight in normal Sprague Dawley rats; assay type: in vivo, Sprague Dawley (SD) rats; settings: Dose: 30 nmol/kg sc, vehicle-corrected
Text: Sprague Dawley (SD) rats were obtained from Janvier Labs, France. The animals arrived at least 14 days before the study start to allow acclimatization to experimental conditions. From arrival and throughout the study, the rats were housed in groups of 2 to 4 (n=2-4) in a light-, temperature- and humidity-controlled room. Animals had access ad libitum to food (KLIBA 3430, Provimi Kliba AG, Switzerland) and water (domestic quality tap water) during the entire study. Per group 6-8 rats were included. A vehicle group and positive control group were included in each set of tests. […] Dosing volume was 2 ml/kg. Food intake was recorded online using an automated food intake system (HM02, MBRose, Denmark) for 4 days or manually at 0 h for a predose and then 24, 48, 72 and 96 h post dosing. Body weight was measured daily.
Statistical analyses were performed using GraphPad™ Prism version 7. The measured parameters were compared using two-way ANOVA followed by Dunnett's multiple comparison tests. Differences were considered statistically significant at p<0.05.

## CC[C@H](C)[C@@H](C(=O)N1CCC[C@H]1C(=O)N[C@@H](CO)C(=O)N[C@@H](CO)C(=O)N[C@H](C(=O)N[C@@H](CCC(=O)O)C(=O)N[C@H](C(=O)NCC(=O)N[C@@H](CO)C(=O)N[C@@H](CC(N)=O)C(=O)N[C@H](C(=O)N1C[C@H](O)C[C@H]1C(N)=O)[C@@H](C)O)C(C)C)[C@@H](C)O)N(C)C(=O)[C@H](C)NC(=O)CN(C)C(=O)[C@H](Cc1ccccc1)NC(=O)[C@H](CO)NC(=O)[C@H](CO)NC(=O)[C@H](CCCNC(=N)N)NC(=O)[C@H](CCC(N)=O)NC(=O)[C@H](CC(C)C)NC(=O)[C@H](Cc1ccccc1)NC(=O)[C@H](Cc1c[nH]cn1)NC(=O)[C@H](C)NC(=O)[C@H](CC(C)C)NC(=O)[C@H](CCCNC(=N)N)NC(=O)[C@H](CCC(N)=O)NC(=O)[C@@H](NC(=O)[C@H](C)NC(=O)[C@@H]1CCCCNC(=O)C[C@H](NC(=O)[C@H](CCCNC(=N)N)NC(=O)CC[C@H](NC(=O)CCCCCCCCCCCCCCCCCCC(=O)O)C(=O)O)C(=O)NCC(=O)N[C@@H]([C@@H](C)O)C(=O)N[C@@H](C)C(=O)N[C@@H]([C@@H](C)O)C(=O)N1)[C@@H](C)O [Compound 15, [19CD]-isoGlu-RD()GTATK()ATQRLAHFLQRSSF-Gly(Me)-A-Ile(Me)-PSSTEVGSNT-Hyp-NH2] ({C20 diacid-γGlu}-RDGTATKATQRLAHFLQRSSF[Sar]A[NMeI]PSSTEVGSNT[Hyp]-NH2; lactam 2-7)
[1]
  EC50: 0.056 nM
[2]; acetate buffer pH 4, 72 h
  % degradation after 72 h at 40° C. pH4 acetate: <1%
[2]; phosphate buffer pH 6, 72 h
  % degradation after 72 h at 40° C. pH6 phosphate: <1%
[2]; phosphate buffer pH 7, 72 h
  % degradation after 72 h at 40° C. pH7 phosphate: <1%
[3]
  EC50: 0.017 nM
[4]
  Fibrillation (in buffer) pH4 acetate: FND
  Fibrillation (in buffer) pH7 histidine: FD
  Fibrillation (in buffer) pH7 phosphate: FD
[5]
  Body weight reduction in % at 48 h: 7.7%
  Food intake reduction in % at 48 h: 71%

## CC[C@H](C)[C@@H](C(=O)N[C@@H](CC(C)C)C(=O)N[C@@H](CO)C(=O)N[C@@H](CO)C(=O)N[C@H](C(=O)N[C@@H](CCC(=O)O)C(=O)N[C@H](C(=O)NCC(=O)N[C@@H](CO)C(=O)N[C@@H](CC(N)=O)C(=O)N[C@H](C(=O)N1C[C@H](O)C[C@H]1C(N)=O)[C@@H](C)O)C(C)C)[C@@H](C)O)N(C)C(=O)[C@H](C)NC(=O)CN(C)C(=O)[C@H](Cc1ccccc1)NC(=O)[C@H](CO)NC(=O)[C@H](CO)NC(=O)[C@H](CCCNC(=N)N)NC(=O)[C@H](CCC(N)=O)NC(=O)[C@H](CC(C)C)NC(=O)[C@H](Cc1ccccc1)NC(=O)[C@H](Cc1c[nH]cn1)NC(=O)[C@H](C)NC(=O)[C@H](CC(C)C)NC(=O)[C@H](CCCNC(=N)N)NC(=O)[C@H](CCC(N)=O)NC(=O)[C@@H](NC(=O)[C@H](C)NC(=O)[C@@H]1CCCCNC(=O)C[C@H](NC(=O)[C@H](CCCNC(=N)N)NC(=O)CC[C@H](NC(=O)CCCCCCCCCCCCCCCCCCC(=O)O)C(=O)O)C(=O)NCC(=O)N[C@@H]([C@@H](C)O)C(=O)N[C@@H](C)C(=O)N[C@@H]([C@@H](C)O)C(=O)N1)[C@@H](C)O [Compound 16, [19CD]-isoGlu-RD()GTATK()ATQRLAHFLQRSSF-Gly(Me)-A-Ile(Me)-LSSTEVGSNT-Hyp-NH2] ({C20 diacid-γGlu}-RDGTATKATQRLAHFLQRSSF[Sar]A[NMeI]LSSTEVGSNT[Hyp]-NH2; lactam 2-7)
[1]
  EC50: 0.043 nM
[2]
  % degradation after 14 days at 40° C. pH6 phosphate: <1%
[3]
  EC50: 0.035 nM
[5]
  Body weight reduction in % at 48 h: 7.4%
  Food intake reduction in % at 48 h: 66%

## CC[C@H](C)[C@@H](C(=O)N1CCC[C@H]1C(=O)N[C@@H](CO)C(=O)N[C@@H](CO)C(=O)N[C@H](C(=O)N[C@@H](CCC(=O)O)C(=O)N[C@H](C(=O)NCC(=O)N[C@@H](CO)C(=O)N[C@@H](CC(N)=O)C(=O)N[C@H](C(=O)N1C[C@H](O)C[C@H]1C(N)=O)[C@@H](C)O)C(C)C)[C@@H](C)O)N(C)C(=O)[C@H](C)NC(=O)CN(C)C(=O)[C@H](Cc1ccccc1)NC(=O)[C@H](CO)NC(=O)[C@H](CO)NC(=O)[C@H](CCCNC(=N)N)NC(=O)[C@H](CCC(N)=O)NC(=O)[C@H](CC(C)C)NC(=O)[C@H](Cc1ccccc1)NC(=O)[C@H](CCCC(=O)O)NC(=O)[C@H](C)NC(=O)[C@H](CC(C)C)NC(=O)[C@H](CCCNC(=N)N)NC(=O)[C@H](CCC(=O)O)NC(=O)[C@@H](NC(=O)[C@H](C)NC(=O)[C@@H]1CCCCNC(=O)C[C@H](NC(=O)[C@H](CCC(=O)O)NC(=O)CC[C@H](NC(=O)CCCCCCCCCCCCCCCCCCC(=O)O)C(=O)O)C(=O)NCC(=O)N[C@@H]([C@@H](C)O)C(=O)N[C@@H](C)C(=O)N[C@@H]([C@@H](C)O)C(=O)N1)[C@@H](C)O [Compound 30, [19CD]-isoGlu-ED()GTATK()ATERLA-Aad-FLQRSSF-Gly(Me)-A-Ile(Me)-PSSTEVGSNT-Hyp-NH2] ({C20 diacid-γGlu}-EDGTATKATERLA[Aad]FLQRSSF[Sar]A[NMeI]PSSTEVGSNT[Hyp]-NH2; lactam 2-7)
[1]
  EC50: 0.232 nM
[3]
  EC50: 0.122 nM
[4]
  Fibrillation (in buffer) pH4 acetate: FD
  Fibrillation (in buffer) pH7 histidine: FND
  Fibrillation (in buffer) pH7 phosphate: FND
[5]
  Body weight reduction in % at 48 h: 0%
  Food intake reduction in % at 48 h: <20%

## CC[C@H](C)[C@@H](C(=O)N[C@@H](CC(C)C)C(=O)N[C@@H](CO)C(=O)N[C@@H](CO)C(=O)N[C@H](C(=O)N[C@@H](CCC(=O)O)C(=O)N[C@H](C(=O)NCC(=O)N[C@@H](CO)C(=O)N[C@@H](CC(N)=O)C(=O)N[C@H](C(=O)N1C[C@H](O)C[C@H]1C(N)=O)[C@@H](C)O)C(C)C)[C@@H](C)O)N(C)C(=O)[C@H](C)NC(=O)CN(C)C(=O)[C@H](Cc1ccccc1)NC(=O)[C@H](CO)NC(=O)[C@H](CO)NC(=O)[C@H](CCCNC(=N)N)NC(=O)[C@H](CCC(N)=O)NC(=O)[C@H](CC(C)C)NC(=O)[C@H](Cc1ccccc1)NC(=O)[C@H](CC(=O)O)NC(=O)[C@H](C)NC(=O)[C@H](CC(C)C)NC(=O)[C@H](CCCNC(=N)N)NC(=O)[C@H](CCC(N)=O)NC(=O)[C@@H](NC(=O)[C@H](C)NC(=O)[C@@H]1CSSC[C@H](NC(=O)[C@H](CCCNC(=N)N)NC(=O)CC[C@H](NC(=O)CCCCCCCCCCCCCCCCCCC(=O)O)C(=O)O)C(=O)N[C@@H](CC(N)=O)C(=O)N[C@@H]([C@@H](C)O)C(=O)N[C@@H](C)C(=O)N[C@@H]([C@@H](C)O)C(=O)N1)[C@@H](C)O [Ref. 5, [19CD]-isoGlu-RC()NTATC()ATQRLADFLQRSSF-Sar-A-Ile(Me)-LSSTEVGSNT-Hyp-NH2, reference compound] ({C20 diacid-γGlu}-RCNTATCATQRLADFLQRSSF[Sar]A[NMeI]LSSTEVGSNT[Hyp]-NH2; disulfide 2-7)
[1]
  EC50: 0.063 nM
[2]; acetate buffer pH 4, 14 days
  % degradation after 14 days at 40° C. pH4 acetate: 3.0%
[2]
  % degradation after 14 days at 40° C. pH6 phosphate: 5.1%
[2]; phosphate buffer pH 7, 14 days
  % degradation after 14 days at 40° C. pH7 phosphate: 12.7%
[3]
  EC50: 0.028 nM
[4]
  Fibrillation (in buffer) pH4 acetate: FD
  Fibrillation (in buffer) pH7 histidine: FND
  Fibrillation (in buffer) pH7 phosphate: FND

Reference: US11382956B2, “Amylin analogues” (Zealand Pharma A/S, priority 2016, dated 2022)
